Our source for the GI50 and TGI values is PubChem BioAssay (NCI).

Test systems include ACHN renal; MOLT-4 leukemia; NCI-H226 lung; SN12C renal; SK-OV-3 ovarian; HOP-62 NSCLC; UO-31 renal; PC-3 prostate.
Holding throughout (assay): NCI-60 cell line screen, 48 h

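Following 48 hours of exposure in 96-well plates, responses at five concentrations were used to interpolate endpoints linearly. GI50: concentration for 50% inhibition of growth. The concentration for full growth arrest is given as TGI.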

With `COc1ccc2c(c1)[nH]c(=O)c1c3cc(OC)ccc3cn21`, the GI50 in the assay with ACHN renal was 0.0199 µM; with MOLT-4 leukemia, under 0.0145 µM; in the assay on NCI-H226 lung it was 0.262 µM; in the assay with SN12C renal it was 0.0362 µM; with SK-OV-3 ovarian, 0.0522 µM; with HOP-62 NSCLC, 0.179 µM. The GI50 with UO-31 renal is 0.028 µM; in the assay on PC-3 prostate, under 0.0104 µM. For the same compound, the TGI with ACHN renal came out at 1.55 µM; in the assay on MOLT-4 leukemia it was 0.788 µM; with NCI-H226 lung, 17.4 µM; in the assay on SN12C renal, 2.3 µM; in the assay with SK-OV-3 ovarian, 4.2 µM; in the assay on HOP-62 NSCLC it was 2.05 µM. The figures for the TGI in the assay on UO-31 renal and in the assay on PC-3 prostate were 1.9 µM and 1.52 µM, respectively.
For `O=C1c2nsnc2C(=O)c2c(F)c(F)c(F)c(F)c21`, the GI50 is 0.501 µM with ACHN renal; 0.298 µM with MOLT-4 leukemia; 1.93 µM in the assay on NCI-H226 lung; 0.998 µM in the assay with SN12C renal; 2.04 µM in the assay on SK-OV-3 ovarian; 0.913 µM with HOP-62 NSCLC. Moreover, the values for the GI50 in the assay with UO-31 renal and in the assay with PC-3 prostate were 0.702 µM and 1.51 µM, respectively. Moreover, the TGI in the assay with ACHN renal came to 1.2 µM; in the assay with MOLT-4 leukemia, 1.44 µM; in the assay on NCI-H226 lung, 4.58 µM; with SN12C renal, 2.28 µM; in the assay on SK-OV-3 ovarian it was 3.7 µM; in the assay with HOP-62 NSCLC, 2.24 µM. The TGI in the assay with UO-31 renal was determined as 2 µM; in the assay on PC-3 prostate, 3.1 µM.
For `Clc1cccc(Cl)c1C1CSc2ccccc2N=C1c1ccccc1` (centres undefined), the GI50 with ACHN renal was 2.45 µM; in the assay on MOLT-4 leukemia, 3.86 µM; with NCI-H226 lung it was 20.5 µM; with SN12C renal, 3.35 µM; with SK-OV-3 ovarian, 11.5 µM; with HOP-62 NSCLC it was 20.7 µM. Moreover, the GI50 is 1.42 µM with UO-31 renal and 5.6 µM with PC-3 prostate. Moreover, the TGI came out at 7.3 µM in the assay on ACHN renal; 37.6 µM in the assay on MOLT-4 leukemia; 74.2 µM with NCI-H226 lung; 12.3 µM with SN12C renal; 24.4 µM in the assay on SK-OV-3 ovarian; 41 µM in the assay with HOP-62 NSCLC. The TGI was 4.57 µM in the assay on UO-31 renal and 20.9 µM in the assay on PC-3 prostate.
Turning to `O=C1Nc2c(C(F)(F)F)cccc2[C@@]1(c1ccc(O)cc1)c1ccc(OC(F)(F)F)cc1`, the GI50 is 0.0178 µM with ACHN renal; 6.51 µM in the assay on MOLT-4 leukemia; 0.0108 µM with NCI-H226 lung; under 0.01 µM in the assay on SN12C renal; 0.0415 µM in the assay with SK-OV-3 ovarian; 0.0226 µM in the assay with HOP-62 NSCLC. Also, the figures for the GI50 in the assay on UO-31 renal and in the assay on PC-3 prostate were 0.0143 µM and under 0.0141 µM, respectively. For the same compound, the TGI in the assay on ACHN renal is 0.0349 µM; in the assay on MOLT-4 leukemia, 25.4 µM; with NCI-H226 lung, 0.0273 µM; in the assay with SN12C renal it was under 0.011 µM; in the assay on SK-OV-3 ovarian, 0.38 µM; in the assay on HOP-62 NSCLC, 0.0661 µM. The TGI in the assay with UO-31 renal was 0.028 µM; with PC-3 prostate, 0.388 µM.
Turning to `NC1CCC(Nc2nc(NCc3ccc(-c4cccs4)nc3)c3ncn(C4CCCC4)c3n2)CC1` (centres undefined), the GI50 in the assay with ACHN renal is 0.276 µM; in the assay with MOLT-4 leukemia, 0.025 µM; in the assay on NCI-H226 lung it was 0.131 µM; in the assay on SN12C renal, 0.0341 µM; in the assay with SK-OV-3 ovarian it was 0.126 µM; in the assay on HOP-62 NSCLC it was 0.0276 µM. The GI50 in the assay with UO-31 renal was 0.203 µM; with PC-3 prostate, 0.0337 µM. In addition, the TGI in the assay on ACHN renal was found to be 1.01 µM; in the assay on MOLT-4 leukemia, 0.502 µM; with NCI-H226 lung, 1.31 µM; in the assay on SN12C renal it was 1.81 µM; with SK-OV-3 ovarian, 4.28 µM; in the assay with HOP-62 NSCLC, 0.0987 µM. Moreover, the TGI in the assay with UO-31 renal amounted to 0.661 µM; in the assay with PC-3 prostate it was 1.04 µM.
On to `Cc1ccc(C(SCC(N)C(=O)O)(c2ccc(C)cc2)c2ccc(C)cc2)cc1` (centres undefined), for which the GI50 is 14.5 µM in the assay with ACHN renal; 3.81 µM with MOLT-4 leukemia; 9.84 µM in the assay on NCI-H226 lung; 2.74 µM in the assay on SN12C renal; 1 µM in the assay on SK-OV-3 ovarian; 6.52 µM in the assay on HOP-62 NSCLC. The GI50 with UO-31 renal is 9.79 µM; in the assay with PC-3 prostate, 2.94 µM. Also, the TGI in the assay with ACHN renal was over 68.3 µM; in the assay with MOLT-4 leukemia, 20.2 µM; in the assay with NCI-H226 lung, over 49.8 µM; in the assay on SN12C renal it was 18.4 µM; in the assay on SK-OV-3 ovarian, 15.3 µM; in the assay with HOP-62 NSCLC, 22.3 µM. Besides, the TGI with UO-31 renal turned out to be 40.4 µM; in the assay on PC-3 prostate it was 20.1 µM.
With `CCCCCCCCCCCCCC1=NCCN1CCO`, the GI50 in the assay on ACHN renal was 2.04 µM; with MOLT-4 leukemia it was 4.11 µM; with NCI-H226 lung, 17.5 µM; in the assay with SN12C renal, 2.57 µM; in the assay with SK-OV-3 ovarian it was 7.04 µM; in the assay with HOP-62 NSCLC it was 5.62 µM. For the same compound, the figures for the GI50 in the assay on UO-31 renal and in the assay with PC-3 prostate were 2.46 µM and 3.37 µM, respectively. The TGI is 4.68 µM in the assay on ACHN renal; over 100 µM in the assay with MOLT-4 leukemia; 41.2 µM with NCI-H226 lung; 6.47 µM with SN12C renal; 18.3 µM in the assay on SK-OV-3 ovarian; 12.7 µM in the assay with HOP-62 NSCLC. Moreover, the TGI with UO-31 renal was 6.16 µM; in the assay on PC-3 prostate, over 34.5 µM.
`COC(=O)[C@]12CC[C@@H](C)[C@H](C)[C@@H]1C1=CC[C@@H]3[C@@]4(C)C(C=O)=C[C@@](C)(COC(C)=O)C4=CC[C@@]3(C)[C@]1(C)CC2`: the GI50 is 3.12 µM in the assay on ACHN renal; 1.82 µM with MOLT-4 leukemia; 6.28 µM in the assay on NCI-H226 lung; 6.12 µM in the assay with SN12C renal; 18 µM in the assay on SK-OV-3 ovarian; 11.7 µM with HOP-62 NSCLC. Besides, the GI50 with UO-31 renal was 3.61 µM; in the assay on PC-3 prostate it was 3.07 µM. Further, the TGI is 12.4 µM in the assay on ACHN renal; 6.12 µM with MOLT-4 leukemia; 22.8 µM in the assay with NCI-H226 lung; 28.1 µM with SN12C renal; 50.4 µM with SK-OV-3 ovarian; 29.3 µM with HOP-62 NSCLC. The TGI with UO-31 renal came to 16 µM; with PC-3 prostate it was 13.9 µM.
`O=[N+]([O-])c1ccc(Sc2ncnc3nc[nH]c23)c2nonc12`: the GI50 in the assay with ACHN renal was 4.04 µM; in the assay with MOLT-4 leukemia, 2.07 µM; in the assay with NCI-H226 lung it was 11.7 µM; with SN12C renal, 18.1 µM; with SK-OV-3 ovarian, 3.75 µM; in the assay on HOP-62 NSCLC, 4.97 µM. Besides, the figures for the GI50 in the assay on UO-31 renal and in the assay with PC-3 prostate were 1.6 µM and 13.1 µM, respectively. Further, the TGI stood at 16.1 µM with ACHN renal; 15.7 µM in the assay with MOLT-4 leukemia; 30.5 µM with NCI-H226 lung; 53.1 µM in the assay on SN12C renal; 16.2 µM in the assay with SK-OV-3 ovarian; 20.7 µM with HOP-62 NSCLC. The TGI is 2.95 µM in the assay on UO-31 renal and 30 µM in the assay on PC-3 prostate.
